biological target: T1, α2C-adrenoceptor (Homo sapiens, UniProt P18825); assay: α2c-Adrenoceptor binding test (3H-MK-912 binding, HepG2 cell membrane fraction); design: the membrane fraction of the cultured cells was used; endogenous in cells; host or cells: HepG2 (human hepatoma) cell membrane fraction; details: 0.5 h, test compound 10^−7 mol/l, read-out: Inhibition ratio (%) against α2c-adrenoceptor binding
T1 sequence (P18825 1-462): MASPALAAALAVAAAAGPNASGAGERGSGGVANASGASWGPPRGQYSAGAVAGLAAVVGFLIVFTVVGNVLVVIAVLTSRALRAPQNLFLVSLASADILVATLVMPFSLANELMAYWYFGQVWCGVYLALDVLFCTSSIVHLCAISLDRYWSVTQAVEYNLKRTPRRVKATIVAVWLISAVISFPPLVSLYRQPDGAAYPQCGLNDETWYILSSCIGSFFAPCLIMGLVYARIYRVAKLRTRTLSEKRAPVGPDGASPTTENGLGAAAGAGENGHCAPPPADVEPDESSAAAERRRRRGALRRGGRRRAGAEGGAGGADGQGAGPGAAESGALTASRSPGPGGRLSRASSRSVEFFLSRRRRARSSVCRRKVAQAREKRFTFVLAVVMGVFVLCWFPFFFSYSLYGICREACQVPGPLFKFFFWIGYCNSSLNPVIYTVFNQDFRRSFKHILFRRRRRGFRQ
Description: Adrenoceptor Binding Activity (α2c-Adrenoceptor Binding Test)
This test was carried out according to the method of Schaak et al. [Journal of Pharmacological Experimental Therapeutics, Vol. 281, p. 983 (1997)] as slightly modified.
Human hepatocyto HepG2 cells were cultured in DMEM medium (GIBCO BRL) containing 10% fetal bovine serum (FBS), 100 units/ml penicillin and 100 μg/ml streptomycin, and the membrane fraction of the cultured cells was used. The cultured cells were washed with phosphate-buffered saline (PBS), then scraped with a scraper and recovered by centrifugation at 800 rpm for 5 minutes. To the cells was added a buffer [50 mmol/l tris(hydroxymethyl)aminomethane: Tris, 5 mmol/l ethylenediamine tetraacetic acid (EDTA), pH 7.5], and the cells were suspended using Polytron Homogenizer (Kinematica), followed by centrifugation at 39,000×g for 10 minutes. The precipitate thus obtained was re-suspended in the same amount of the buffer, and the cell suspension was obtained by centrifugation and removing the supernatant in a similar manner.
To 100 μl of the cell suspension were added 80 μl of tritium-labeled MK-912 (methyl-^3H: 2.89 TBq/mmol; New England Nuclear) (final concentration: 1.0 nmol/l) and 20 μl of a test compound. The mixture was allowed to stand at 25° C. for 30 minutes and then rapidly filtered by suction through a glass fiber filter treated with 0.3% polyethyleneimine (GF/C; Whatman). The filter was immediately washed 3 times with 200 μl of an ice-cooled buffer and transferred to a vial. A liquid scintillator (ULTIMA GOLD; Packard) was added thereto and the radioactivity was measured with a liquid scintillation counter (Packard).
The inhibition ratio of the test compound against the α2C-adrenoceptor binding (^3H-MK-912 binding) was calculated using the following equation.
Inhibition ratio (%)={1−(amount of the binding in the presence of the test compound−amount of the nonspecific binding)/(amount of the total binding−amount of the nonspecific binding)}×100
(Note) Amount of the total binding means the amount of radioactivity of ^3H-MK-912 bound in the absence of the test compound. Amount of the nonspecific binding means the amount of radioactivity of ^3H-MK-912 bound in the presence of 10 μmol/l Yohimbine (Sigma). Amount of the binding in the presence of the test compound means the amount of radioactivity of ^3H-MK-912 bound in the presence of varied concentrations of the test compound.

| SMILES | inhibition at 0.1 µM [%] |
| --- | --- |
| COc1cc2c(cc1OC)CN(Cc1cnc(NCCCO)n3nc(-c4ccco4)nc13)CC2 [Compound 182, 8-(6,7-Dimethoxy-1,2,3,4-tetrahydroisoquinolin-2-ylmethyl)-2-(2-furyl)-5-(3-hydroxypropylamino)[1,2,4]triazolo[1,5-c]pyrimidine] | 72 |
| CN(Cc1ccccc1)c1ncc(CN2CCN(c3ccccc3F)CC2)c2nc(-c3ccco3)nn12 [Compound 370, 8-[4-(2-Fluorophenyl)piperazin-1-ylmethyl]-2-(2-furyl)-5-(N-methylbenzylamino)[1,2,4]triazolo[1,5-c]pyrimidine] | 91 |
| CSc1ncc(CN2CCc3ccccc3C2)c2nc(-c3ccco3)nn12 [Compound 452, 2-(2-Furyl)-5-methylthio-8-(1,2,3,4-tetrahydroisoquinolin-2-ylmethyl)[1,2,4]triazolo[1,5-c]pyrimidine] | 58 |
| COCCNc1ncc(CN2CCc3ccccc3C2)c2nc(-c3ccco3)nn12 [Compound 127, 2-(2-Furyl)-5-(2-methoxyethylamino)-8-(1,2,3,4-tetrahydroisoquinolin-2-ylmethyl)[1,2,4]triazolo[1,5-c]pyrimidine] | 68 |
| Nc1ncc(CN2CCN(c3ccccc3)CC2)c2nc(C3CCCCC3)nn12 [Compound 166, 5-Amino-2-cyclohexyl-8-(4-phenylpiperazin-1-ylmethyl)[1,2,4]triazolo[1,5-c]pyrimidine] | 84 |
| Nc1ncc(CN2CCN(c3ccccc3Cl)CC2)c2nc(-c3ccco3)nn12 [Compound 49, 5-Amino-8-[4-(2-chlorophenyl)piperazin-1-ylmethyl]-2-(2-furyl)[1,2,4]triazolo[1,5-c]pyrimidine] | 91 |
| O=c1[nH]cc(CN2CCN(c3ccccc3)CC2)c2nc(-c3ccco3)nn12 [Compound 483, 2-(2-Furyl)-8-(4-phenylpiperazin-1-ylmethyl)-6H-[1,2,4]triazolo[1,5-c]pyrimidin-5-one] | 60 |
| Nc1ncc(CN2CCC(c3ccccc3)CC2)c2nc(-c3ccco3)nn12 [Compound 203, 5-Amino-2-(2-furyl)-8-(4-phenylpiperidinomethyl)[1,2,4]triazolo[1,5-c]pyrimidine] | 83 |
| N#Cc1ccccc1N1CCN(Cc2cnc(N)n3nc(-c4ccco4)nc23)CC1 [Compound 59, 5-Amino-8-[4-(2-cyanophenyl)piperazin-1-ylmethyl]-2-(2-furyl)[1,2,4]triazolo[1,5-c]pyrimidine] | 65 |
| COc1ccc2c(c1)CCN(Cc1cnc(N)n3nc(-c4ccco4)nc13)C2 [Compound 89, 5-Amino-2-(2-furyl)-8-(6-methoxy-1,2,3,4-tetrahydroisoquinolin-2-ylmethyl)[1,2,4]triazolo[1,5-c]pyrimidine] | 86 |
| Nc1ncc(CN2CCN(c3ncccn3)CC2)c2nc(-c3ccco3)nn12 [Compound 23, 5-Amino-2-(2-furyl)-8-[4-(2-pyrimidinyl)piperazin-1-ylmethyl][1,2,4]triazolo[1,5-c]pyrimidine] | 70 |
| Nc1ncc(CN2CCN(c3ccccc3)CC2)c2nc(-c3cccnc3)nn12 [Compound 144, 5-Amino-8-(4-phenylpiperazin-1-ylmethyl)-2-(3-pyridyl)[1,2,4]triazolo[1,5-c]pyrimidine] | 75 |
| Cc1ccc2c(c1)CN(Cc1cnc(N)n3nc(-c4ccco4)nc13)CC2 [Compound 195, 5-Amino-2-(2-furyl)-8-(7-methyl-1,2,3,4-tetrahydroisoquinolin-2-ylmethyl)[1,2,4]triazolo[1,5-c]pyrimidine] | 87 |
| Nc1ncc(CN2CCN(c3ccccc3F)CC2)c2nc(-c3ccco3)nn12 [Compound 45, 5-Amino-8-[4-(2-fluorophenyl)piperazin-1-ylmethyl]-2-(2-furyl)[1,2,4]triazolo[1,5-c]pyrimidine] | 88 |
| Nc1ncc(CNCC2COc3ccccc3O2)c2nc(-c3ccco3)nn12 (stereo not shown) [Compound 213, 5-Amino-8-(1,4-benzodioxan-2-ylmethylaminomethyl)-2-(2-furyl)[1,2,4]triazolo[1,5-c]pyrimidine] | 96 |
| Cc1ccccc1N1CCN(Cc2cnc(N)n3nc(-c4ccco4)nc23)CC1 [Compound 55, 5-Amino-2-(2-furyl)-8-[4-(2-methylphenyl)piperazin-1-ylmethyl][1,2,4]triazolo[1,5-c]pyrimidine] | 92 |
| Nc1ncc(CN2CCN(c3ccccc3)CC2)c2nc(-c3ccco3)nn12 [Compound 2, 5-Amino-2-(2-furyl)-8-(4-phenylpiperazin-1-ylmethyl)[1,2,4]triazolo[1,5-c]pyrimidine] | 80 |
| Nc1ncc(CN2CCc3ccccc3C2)c2nc(-c3ccco3)nn12 [Compound 19, 5-Amino-2-(2-furyl)-8-(1,2,3,4-tetrahydroisoquinolin-2-ylmethyl)[1,2,4]triazolo[1,5-c]pyrimidine] | 96 |
| C1=C(CN2CCc3ccccc3C2)c2nc(-c3ccco3)nn2C2=NCCN12 [Compound 491, 2-(2-Furyl)-4-(1,2,3,4-tetrahydroisoquinolin-2-ylmethyl)-6,7-dihydro-1,3,5a,8,8b-pentaaza-as-indacene] | 74 |
